Patent US20050009886A1, “1,4-Dihydropyridine derivative with a guaiacoxypropanolamine and/or phenoxypropanolamine moiety” (priority 1998, published 2005)

How the values were obtained:
[1] = Heart rate and blood pressure in living rat; format: in vivo, Wistar rats
Text: Male Wistar rats, weighing 200˜300 g were abdominal anaesthetized with pentobarbital sodium. Tracheal was cannulated to maintain normal respiration. Polyethylene tube was inserted into the left femoral vein to facilitate drug administration. A 3-way stopcock was used, with one end connected to a syringe for drug injection, while the other end was connected to the syringe filled with physiological saline. The latter was used to prevent residual drugs in the polyethylene tube after injection, which would affect experimental accuracy.
The right femoral artery was also inserted with polyethylene, and a 3-way stopcock was used too, where one end was connected to heparin solution to prevent embolism. The other end was connected to a Disposable Diaphragm Dome, TA1019, and linked to a transducer. Through an amplifier, a recorder recorded the overall and average arterial pressure; heart rate to evaluate the effect of drug on blood pressure and heart rate.

β-adrenoreceptor (β1) = molecular target: T1, β-adrenoreceptor (β1) (Rattus norvegicus, UniProt P18090); assay: Isolated right atrium, L-isoproterenol-induced heart rate increase (pA2); parameters: species or system Wistar rat; details: for β1 Value of pA2 Right Atrium: vs L-isoproterenol, Schild plot
T1 construct: The right and left atria were then separated; from tissue; host or cells: isolated rat right atrium (spontaneously beating) and left atrium (electrically paced)
T1 sequence (P18090 whole entry): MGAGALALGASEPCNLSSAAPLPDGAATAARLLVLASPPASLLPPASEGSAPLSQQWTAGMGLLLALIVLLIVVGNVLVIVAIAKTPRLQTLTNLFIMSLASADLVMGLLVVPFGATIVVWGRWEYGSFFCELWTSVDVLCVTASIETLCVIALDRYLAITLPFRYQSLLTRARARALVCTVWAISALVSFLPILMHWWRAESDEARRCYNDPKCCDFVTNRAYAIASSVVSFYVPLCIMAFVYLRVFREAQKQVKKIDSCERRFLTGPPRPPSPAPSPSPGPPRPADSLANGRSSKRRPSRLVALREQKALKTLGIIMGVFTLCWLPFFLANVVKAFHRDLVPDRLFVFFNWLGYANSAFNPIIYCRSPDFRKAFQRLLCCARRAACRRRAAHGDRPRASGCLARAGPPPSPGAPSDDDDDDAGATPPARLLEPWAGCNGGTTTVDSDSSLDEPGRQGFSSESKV
Experimental: The right and left atria were then separated. The spontaneously-beating right atria was clipped on both end by heart shaped clips, where one end was fixed at the bottom of 10 ml of tissue bath made of physiological saline solution, and temperature maintained at 37° C. The other end of the atria was connected to a force transducer, and isometric contractions and beating rate of the right atria were recorded by COULBOURN AT-High-Speed VideoFigure. After the samples were given 250 mg of contractions and reach equilibrium the following experiments were carried out: • (a) β-adrenoceptor blocking action
Cumulative administration interval was when the previous concentration reached its greatest effect, the next concentration would be immediately given.
The equation is as follows: pA2=−Log KB Log(DRADJ−1)=nlog[B]−LogKB [formula]
[B] Test compound concentration in moles • KB: equilibrium dissociation constant • n: value of slope DR: test EC50 divided by control EC50 • CF: EC50 of second or third control groups divided by EC50 of first control group (c) Effect of Compound on the Increase of Spontaneous Beating in Right Atrium Caused by CaCl2

thoracic aorta = assay: Isolated thoracic aorta contraction caused by 75 mM KCl; parameters: species or system Wistar rat
Experimental: After sacrificing Wistar rat of weight between 300-500 gm, the thoracic aorta was immediately removed and placed in cold Kreb's solution. The fatty connecting tissue surrounding the vessel wall was removed and the thoracic aorta was cut into rings of length 5 mm. The two ends of each ring was pieced and fixed with “Z” shaped platinum wires. […] The sample was given 1 gm of tension and equilibrated for 60 minutes before the following experiments were carried out:
After thoracic aorta had reached equilibrium in the tissue trough, the normal Kreb's solution in the trough was replaced with 75 mM KCl solution to induce vasoconstriction. When the results had been recorded for at least 35 minutes, the aorta was repeatedly rinsed with normal Kreb's solution. After the aorta had re-equilibrated and at least rested for 60 minutes, different concentrations (10^−8, 10^−7, 10^−6, and 10^−5M) of compound 1 were separately added. 30 minutes later, 75 mM KCl was added again to induce vasoconstriction. This method was used to compare the differences in contraction induced by 75 mM KCl on thoracic aorta pre-treated and non-treated with compound 1.
0.1 μM of BayK8644 was first added into the tissue trough. 10 minutes later, 75 mM of concentrated Potassium solution was added to induce thoracic aorta contraction. When vasoconstriction had reached stability, different concentrations of (10^−8, 10^−7, 10^−6, and 10^−5M) compound 1 were separately added. The effects of aorta contraction induced by concentrated Potassium solution were observed.

lung β 2-receptor = molecular target: T2, lung β 2-receptor (Rattus norvegicus, UniProt P10608); format: binding, Wistar rat; details: 25° C., 60 minutes
T2 construct: The heart and lung of rat were removed and placed in cold Tris buffer; from tissue; host or cells: membrane preparation from rat lung
T2 sequence (P10608 whole entry): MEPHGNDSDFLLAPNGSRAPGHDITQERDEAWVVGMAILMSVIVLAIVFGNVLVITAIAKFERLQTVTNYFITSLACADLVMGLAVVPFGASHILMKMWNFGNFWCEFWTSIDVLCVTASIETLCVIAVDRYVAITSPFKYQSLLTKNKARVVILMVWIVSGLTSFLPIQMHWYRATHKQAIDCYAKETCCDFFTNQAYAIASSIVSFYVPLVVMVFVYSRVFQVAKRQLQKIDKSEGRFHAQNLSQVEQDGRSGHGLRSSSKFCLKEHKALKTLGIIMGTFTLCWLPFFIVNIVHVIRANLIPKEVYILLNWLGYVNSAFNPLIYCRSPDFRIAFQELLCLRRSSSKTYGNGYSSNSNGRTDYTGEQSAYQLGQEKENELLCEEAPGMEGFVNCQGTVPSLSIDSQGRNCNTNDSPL

isolated atria = assay: Direct effect (intrinsic sympathomimetic activity) on reserpine pretreated isolated atria; parameters: species or system Wistar rat
Experimental: Wistar rats of weight between 200˜300 gm were used. 18˜24 hours before the experiment, 5 mg/kg of reserpine was injected via abdominal cavity to remove all endogenous catecholamines. Prior experiment, Wistar rats were sacrificed, the heart was immediately removed and placed in Kreb's solution aerated with air mixture and maintained at room temperature. The right and left atria were carefully separated.

β2-adrenoceptor = molecular target: T3, β2-adrenoceptor (Cavia porcellus, UniProt Q8K4Z4); assay: Direct effect (intrinsic sympathomimetic activity) on reserpine pretreated isolated tracheal; parameters: species or system guinea pig
T3 construct: a portion of tracheal approximately 4 cm long was removed; from tissue; host or cells: isolated trachea of reserpine-pretreated guinea pigs
T3 sequence (Q8K4Z4 whole entry): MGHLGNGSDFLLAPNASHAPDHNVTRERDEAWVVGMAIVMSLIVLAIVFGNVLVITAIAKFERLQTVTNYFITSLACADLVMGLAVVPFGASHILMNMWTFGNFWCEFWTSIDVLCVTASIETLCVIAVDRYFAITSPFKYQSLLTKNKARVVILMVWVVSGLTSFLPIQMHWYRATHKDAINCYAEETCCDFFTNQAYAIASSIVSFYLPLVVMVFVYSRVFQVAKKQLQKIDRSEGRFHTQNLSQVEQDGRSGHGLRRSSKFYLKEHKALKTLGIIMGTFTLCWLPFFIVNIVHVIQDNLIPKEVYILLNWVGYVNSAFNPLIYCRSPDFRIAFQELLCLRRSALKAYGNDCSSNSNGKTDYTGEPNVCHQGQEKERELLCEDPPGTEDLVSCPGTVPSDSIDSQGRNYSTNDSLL
Experimental: 18˜24 hours before the experiment, 5 mg/kg of reserpine was injected via abdominal cavity to remove all endogenous catecholamines. Prior experiment, guinea pigs were sacrificed, the tracheal was immediately removed and placed in Kreb's solution aerated with air mixture and maintained at room temperature of 22˜25° C. […] Then the tissue was repeatedly washed with Kreb's solution.

right atrium = details: 10^−7, 10^−6, and 10^−5M; CaCl2 3.0, 6.0, 9.0 mM
Experimental: The right atrium of the rats was allowed to equilibrate in Kreb's solution for at least 60 minutes. When the spontaneous beating rate had reached a certain stability, CaCl2 of different concentrations (3.0, 6.0, and 9.0 mM) were cumulatively administered, and the changes in the spontaneous beating of right atrium were observed. […] 30 minutes later, different concentrations (3.0, 6.0, and 9.0 mM) were cumulatively administered, and the changes in the spontaneous beating of right atrium were observed again.

Calcium = Calcium antagonism (pKCa^−1, Table 2)
[2] = molecular target: cerebral cortex calcium ion receptors; details: 25° C., 60 minutes
A7r5 cells = details: 10^−8, 10^−7, 10^−6M for 5 minutes
[3] = 1 mg/kg via femoral vein, anaesthetized rat
[4] = intravenous 0.1-2.0 mg/kg, normotensive rats

- [^3H] CGP-12177 (β2) pKi (lung β 2-receptor): 6.20 ± 0.55
- [^3H]nitrendipine Ca^2+ PKi [2]: 7.86 ± 0.38
Compound: COC(=O)C1=C(C)NC(C)=C(C(=O)OC)C1c1ccc(OCC(O)CNC(C)(C)C)c(OC)c1 (centres unmarked) [Compound 1]
- Lowering of Blood Pressure [1, 3]: 70 ± 3 mmHg
- Reduction of Heart Rate [1, 3]: 30 ± 2 beats/min
- effect on heart rate ([1]; intravenous 0.5 mg/kg): a decrease in heart rate
- duration of blood pressure lowering effect [1, 4]: approximately 1 hour
- effect on blood pressure and heart rate [1, 4]: continuous dose-dependent blood pressure lowering effect without increasing heart rate
- Ratio of β1 and Calcium Antagonism (β-adrenoreceptor (β1)): 0.12
- effect on right atrium relative to tracheal (selectivity ratio of β1 type adrenoceptor) (β-adrenoreceptor (β1); from average pA2 difference between right atrium and tracheal): 1.32 ×
- β1/β2 (β-adrenoreceptor (β1); from pA2 difference right atrium vs tracheal): 1.32
- block of heart rate increment effect of L-isoproterenol (β-adrenoreceptor (β1); right atrium, 10^−6, 10^−5, and 10^−6 M as printed): could competitively block
- β1 Right Atrium (Slope) (β-adrenoreceptor (β1); slope of Schild regression): (0.94 ± 0.18)
- β1 Value of pA2 Right Atrium (β-adrenoreceptor (β1)): 7.21 ± 0.32
- β1 Value of pA2 Right Atrium (β-adrenoreceptor (β1); listed as compound 1): 7.21±0.32
- selectivity on the type of β-adrenoceptor (β-adrenoreceptor (β1); β1:β2): non-selective
- effect on 75 mM KCl contracted thoracic aorta (thoracic aorta; 10^−8, 10^−7, 10^−6, and 10^−5 M): dose-dependant vasoconstriction
- Aorta Relaxation (thoracic aorta; 10^−8M, 75 mM KCl contraction): 30 ± 3%
- effect of 0.1 μM BayK8644 pre-treatment on the aorta effect (thoracic aorta; BayK8644 0.1 μM 10 minutes, then concentrated Potassium solution): would affect vasoconstriction function
- direct effect on right atrium beating rate and left atrium isometric contractions (isolated atria; cumulative administration, reserpine pretreated): could not increase the beating rate and isometric contractions
- concentration with blocking effect on beating rate and isometric contractions (isolated atria; reserpine pretreated atria): ≥ 10^−5 M
- tracheal relaxation after pretreatment with ICI118, 551 (β2-adrenoceptor; ICI 118, 551 10^−8, 10^−9, 10^−10M for 30 minutes (nifedipine: 10^−8 M)): concentration-dependently shifting parallel to the right
- direct tracheal relaxation effect (β2-adrenoceptor; cumulative 10^−10˜3×10^−6 M, reserpine pretreated tracheal): dose-dependant tracheal relaxation effect
- effect on increased atrial beating rate induced by CaCl2 (right atrium): blocked
- Calcium Antagonism PKCa^−1 (Calcium): 7.82 ± 0.49
- calcium ion influx effect of BayK8644 (A7r5 cells; 10 μM BayK8644): significantly blocked
- calcium ion influx effect of KCl (A7r5 cells; 50 mM KCl): significantly blocked
